Series [1] can be described thus: Chemical stability in MeCN/water solution at 25 degC. It counts as physicochemical. The following applies: buffer.
Series [2] can be described thus: Stability in human plasma assessed as compound hydrolysis at 37 degC within 90 mins. It counts as ADME, cell-free. The following applies: read-out: Drug degradation.
The subject of another series is Liver microsomes. Put plainly: Metabolic stability in human liver microsomes. The format is ADME, Microsome. (In general: Microsomes from liver hold many membrane-bound enzymes, among them those of drug oxidation.)
A further series has as its system Liver. Put plainly: Metabolic stability in mouse liver microsomes. It counts as ADME, Microsome.
Series [3] can be described thus: Antioxidant activity of the compound assessed as DHR radical scavenging activity at 10 uM by fluorescence assay. It counts as functional.
Series [4] can be described thus: Antioxidant activity assessed as scavenging of glucose oxidase-generated H2O2 and hydroxyl radicals by chemiluminescence assay. It counts as functional.
The species named for series [5] is Gallus gallus. Put plainly: Prevention of apoptosis in chick primary telencephalon neurons assessed as protection against serum deprivation-induced oxidative stress at 10 nM measured on day 8 by MTT assay. It counts as functional. A general note: Tetrazolium dyes change colour on reduction, which living cells bring about.
In series [6] the test system is H9c2. Put plainly: Prevention of apoptosis in rat H9c2 cells assessed as protection against oxidative stress-induced cytotoxicity at 100 nM […] by Alamar blue assay. The format is functional. For orientation: Resazurin is reduced to fluorescent resorufin, in cell work by metabolically active cells.
Series [7] is filed under the species Gallus gallus. Put plainly: Prevention of apoptosis in chick primary telencephalon neurons assessed as protection against serum deprivation-induced cytotoxicity at 1 to 10 uM by MTT assay. It counts as functional.
For series [8], the system named is Radical scavenging activity. The series is described as follows: Antioxidant activity of the compound assessed as DPPH radical scavenging at 10 uM after 30 secs by spectrophotometry. It counts as functional.
Series [9] in a line: Antioxidant activity assessed as scavenging of morpholino sydononimine based nitric oxide release by chemiluminescence assay. The format is functional.
Series [10] in a line: Cytotoxicity against rat H9c2 cells assessed as cell viability in absence of H2O2. It counts as cell-based. Set-up: concentration or dose not given beside the values. The note with it: read-out: Activity.
A short description of series [11]: Selectivity ratio of IC50 for equine BuChE to IC50 for bovine AChE.
Series [12] relates to H9c2. Put plainly: Prevention of apoptosis in rat H9c2 cardiomyocytes assessed as protection against oxidative stress-induced cytotoxicity at 1 pM to 1 nM after 1 hr by Alamar blue assay. It counts as functional.
The target of a further series is Butyrylcholinesterase (Equus caballus, UniProt Q9N1N9). Put plainly: Inhibition of equine BuChE after 120 mins by Ellman's method.
Sequence of Butyrylcholinesterase (Q9N1N9 whole entry): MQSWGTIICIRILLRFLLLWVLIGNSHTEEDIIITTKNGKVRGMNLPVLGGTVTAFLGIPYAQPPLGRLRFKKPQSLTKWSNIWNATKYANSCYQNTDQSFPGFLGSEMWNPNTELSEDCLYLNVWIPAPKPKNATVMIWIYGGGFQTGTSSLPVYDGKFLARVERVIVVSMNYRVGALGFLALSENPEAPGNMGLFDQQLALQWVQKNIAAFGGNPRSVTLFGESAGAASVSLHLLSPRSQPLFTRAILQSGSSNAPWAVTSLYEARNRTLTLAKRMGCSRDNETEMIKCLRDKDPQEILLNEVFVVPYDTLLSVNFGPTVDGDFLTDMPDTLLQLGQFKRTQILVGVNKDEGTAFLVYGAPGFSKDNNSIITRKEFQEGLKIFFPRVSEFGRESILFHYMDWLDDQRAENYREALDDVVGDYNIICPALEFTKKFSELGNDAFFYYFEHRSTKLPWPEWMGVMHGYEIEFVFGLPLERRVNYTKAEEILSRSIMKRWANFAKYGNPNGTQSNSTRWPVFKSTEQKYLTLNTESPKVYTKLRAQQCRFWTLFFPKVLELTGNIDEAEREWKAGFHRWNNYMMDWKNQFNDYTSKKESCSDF
The target in a further series is T1, Acetylcholinesterase (Bos taurus, UniProt P23795).
T1 sequence (P23795 whole entry): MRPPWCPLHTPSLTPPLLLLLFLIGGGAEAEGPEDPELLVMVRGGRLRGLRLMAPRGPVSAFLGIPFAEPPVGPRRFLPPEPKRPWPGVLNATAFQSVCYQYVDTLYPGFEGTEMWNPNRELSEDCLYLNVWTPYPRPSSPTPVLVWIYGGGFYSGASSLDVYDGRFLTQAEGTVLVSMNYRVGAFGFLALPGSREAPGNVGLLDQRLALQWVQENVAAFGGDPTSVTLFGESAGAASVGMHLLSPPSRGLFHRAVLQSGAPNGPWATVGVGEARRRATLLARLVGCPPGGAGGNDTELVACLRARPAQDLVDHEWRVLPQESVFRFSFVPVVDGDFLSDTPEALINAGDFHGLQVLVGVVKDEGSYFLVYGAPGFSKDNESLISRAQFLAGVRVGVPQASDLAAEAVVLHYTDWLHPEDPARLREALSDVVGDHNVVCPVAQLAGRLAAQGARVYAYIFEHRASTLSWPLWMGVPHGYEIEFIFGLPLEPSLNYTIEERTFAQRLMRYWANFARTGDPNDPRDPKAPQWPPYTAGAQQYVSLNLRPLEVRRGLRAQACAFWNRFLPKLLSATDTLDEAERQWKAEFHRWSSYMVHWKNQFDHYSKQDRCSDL
The series is described as follows: Inhibition of bovine AChE after 120 mins by Ellman's method.

Series [13] is described as follows: Chemical stability in MeCN/water solution used as 100 mg/mL solution at room temperature. It counts as physicochemical. The note with it: buffer.
The nature of series [14]: Chemical stability in MeCN/water solution used as 50 mg/mL solution at -20 degC. The format is physicochemical. The following applies: buffer.
Series [15] in a line: Chemical stability in MeCN/water solution used as 0.5 mg/mL solution at -20 degC. The format is physicochemical. The following applies: buffer.
Series [16] is described as follows: Antioxidant activity of the compound assessed as scavenging of hydroxyl radical by chemiluminometric method. It counts as functional.
Series [17] is described as follows: Antioxidant activity of the compound assessed as scavenging of peroxynitrite by chemiluminometric method. It counts as functional.

Active and inactive are the calls of the source. The rule behind the calls is not given here.

For `CCN(C)C(=O)Oc1cccc2c1C(CCC(=O)OC)CN2.CS(=O)(=O)O` (stereo unspecified), the values for the Stability (in series [1]; in the series with Liver microsomes; in the series on Liver) were 9 days, “Unstable” and “Unstable”, respectively. In series [2], the metabolised at […] stood at 40%.
The term IC50 denotes the concentration that gives 50% inhibition. Consider `COC(=O)CCC1CNc2cccc(O)c21.Cl` (stereo unspecified), for which the values for the Activity (in [3]; in the series on H9c2 [6]; in series [8]) were 10.6%, 57.3% and 32.4%, respectively. Besides, the IC50 in series [4] was 0.67 µM; in series [9], 0.25 µM. Further, the result in the series listed under Gallus gallus [5] and in the series listed under Gallus gallus [7] was Active. Also, the viability in series [10] amounted to 121%.
With `CCN(C)C(=O)Oc1cccc2c1C(CCC(=O)O)CN2C.Cl` (stereo unspecified), the Ratio IC50 in series [11] stood at 0.078. In addition, the IC50 amounted to 1.64 µM in series [4], 9.7 µM against Butyrylcholinesterase and 124 µM on Acetylcholinesterase. In addition, the Activity in the series with H9c2 [12] stood at 43%; with H9c2 [6], 57.4%. Moreover, the viability in series [10] turned out to be 106%.
For `CCN(C)C(=O)Oc1cccc2c1CCN2.Cl`, the Ratio IC50 in [11] was found to be 0.1. The IC50 in series [4] is 1.38 µM; at Butyrylcholinesterase, 0.7 µM; on Acetylcholinesterase, 7.2 µM; in series [9], 0.57 µM. In addition, the result in the series listed under Gallus gallus [5] and in the series filed under Gallus gallus [7] was Active. Moreover, the values for the Activity (in the series with H9c2 [6]; in series [8]) were 35.3% and 15%, respectively.
With `CCN(C)C(=O)Oc1ccc2c(c1)NCC2CCC(=O)OC.O=C(O)CC(O)(CC(=O)O)C(=O)O` (stereo unspecified), the Stability entry in series [13] was “Unstable”; in the series with Liver microsomes, “Unstable”; in [14], “Stable”; in [15] it was “Stable”; in the series on Liver, “Unstable”.
Regarding `COc1ccc2[nH]cc(CCNC(C)=O)c2c1` [MELATONIN], the 50% inhibitory concentration (IC50) was found to be 537 µM in series [16], 95.8 µM in series [4], 1020 µM in series [9] and 127 µM in series [17].
With `CCN(C)C(=O)Oc1cccc2c1C(CCC(=O)OC)CN2` (stereo unspecified), the Ratio IC50 in [11] is 0.04. The result in the series listed under Gallus gallus [5] and in the series filed under Gallus gallus [7] was Active. The Activity in series [8] is 24.8%.

The record behind these values is ChEMBL document CHEMBL2177019, “Carbamate derivatives of indolines as cholinesterase inhibitors and antioxidants for the treatment of Alzheimer's disease” (J Med Chem, 2012).
